In US8507502B2, “Fused bicyclic and tricyclic pyrimidine compounds as tyrosine kinase inhibitors” (National Health Research Institutes, priority 2008, dated 2013):
Where two headings read alike, the source gives them in different places.

Legend:
GST-EGFR-KD^WT = molecular target: T1, GST-EGFR-KD^WT (Homo sapiens, UniProt P00533); test: EGFR kinase assay (Kinase-Glo); format: biochemical; conditions: 5 μM ATP, read-out: IC50 (concentration at which activity of 50% of EGFR is inhibited)
T1 construct: 50 ng GST-EGFR-KD^WT proteins; made in house

HCC827 cells = test: HCC827 cell viability, MTS assay; format: cell-based; conditions: Homo sapiens, 96-h incubation, read-out: IC50 (concentration which causes 50% of the cell death)
GST-EGFR-KD^L858R/T790M = molecular target: T2, GST-EGFR-KD^L858R/T790M (Homo sapiens, UniProt P00533, L858R/T790M); test: Double mutant EGFR kinase assay (Kinase-Glo); format: biochemical; conditions: 1 μM ATP, read-out: IC50 (concentration at which activity of 50% of mutant EGFR is inhibited)
T2 construct: residues from 696 to 1022 and with L858R/T790M; made in house; host or cells: Sf9 insect cells (baculovirus)
T2 sequence (P00533 696-1022 T790M/L858R): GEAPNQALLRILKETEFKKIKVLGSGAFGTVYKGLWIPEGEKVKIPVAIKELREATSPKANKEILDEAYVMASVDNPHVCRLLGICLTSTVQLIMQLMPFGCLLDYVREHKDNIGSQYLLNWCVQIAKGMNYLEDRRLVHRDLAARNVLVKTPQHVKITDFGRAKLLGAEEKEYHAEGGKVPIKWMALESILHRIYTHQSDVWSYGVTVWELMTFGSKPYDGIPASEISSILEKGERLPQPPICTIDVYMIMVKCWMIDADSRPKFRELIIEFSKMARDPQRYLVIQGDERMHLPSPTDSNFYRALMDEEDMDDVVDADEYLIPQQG

T1 sequence (P00533 712-979 limits assumed): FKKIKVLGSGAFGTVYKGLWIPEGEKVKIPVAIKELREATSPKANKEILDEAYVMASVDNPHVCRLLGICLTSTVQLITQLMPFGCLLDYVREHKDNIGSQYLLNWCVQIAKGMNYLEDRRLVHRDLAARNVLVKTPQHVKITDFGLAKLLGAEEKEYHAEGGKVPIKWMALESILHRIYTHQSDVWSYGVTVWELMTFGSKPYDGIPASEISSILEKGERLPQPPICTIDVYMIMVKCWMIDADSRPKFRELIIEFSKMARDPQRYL

| Compound | IC50 (GST-EGFR-KD^WT) [nM] | IC50 (GST-EGFR-KD^L858R/T790M) [nM] | IC50 (GST-EGFR-KD^WT; range given in mixed units) [nM] | IC50 (HCC827 cells) [nM] |
| --- | --- | --- | --- | --- |
| OC[C@@H](Nc1ncnc2sc(-c3ccccc3)cc12)c1ccccc1 [Compound 7] | – | – | 101 to 900 | – |
| CC[C@@H](Nc1ncnc2oc(-c3ccccc3)c(-c3ccccc3)c12)c1ccccc1 [Compound 54] | – | – | – | 301 to 999 |
| COc1cccc(COC[C@@H](Nc2ncnc3sc4c(c23)CCN(C(=O)/C=C/CN(C)C)C4)c2ccccc2)c1 [Compound 228] | < 59 | 500 to 2500 | – | 1 to 99 |
| CC(=O)OC/C=C/C(=O)N1CCc2c(sc3ncnc(N[C@H](C)c4ccccc4)c23)C1 [Compound 214] | < 59 | – | – | 1 to 99 |
| CN(C)C/C=C/C(=O)N1CCc2c(sc3ncnc(N[C@H](CO)Cc4ccccc4)c23)C1 [Compound 192] | – | – | 101 to 900 | 1 to 99 |
| O=C(O)[C@@H](Nc1ncnc2sc3c(c12)CCCC3)c1ccccc1 [Compound 18] | – | – | 101 to 900 | – |
| CC(C)NC/C=C/C(=O)N1CCc2c(sc3ncnc(N[C@H](C)c4ccccc4)c23)C1 [Compound 204] | – | – | 101 to 900 | 1 to 99 |
| CN(C)C/C=C/C(=O)N1CCc2c(sc3ncnc(N[C@H](CO[Si](C)(C)C(C)(C)C)c4ccccc4)c23)C1 [Compound 186] | 60 to 100 | – | – | 301 to 999 |
| CC(=O)Nc1ccc(-c2c(-c3ccccc3)oc3ncnc(N[C@H](CO)c4ccccc4)c23)cc1 [Compound 37] | 60 to 100 | – | – | 100 to 300 |
| OC[C@@H](Nc1ncnc2sc3c(c12)CCC3)c1ccccc1 [Compound 3] | – | – | – | 301 to 999 |
| OC[C@@H](Nc1ncnc2oc(-c3ccccc3)c(-c3ccoc3)c12)c1ccccc1 [Compound 41] | – | – | 101 to 900 | 100 to 300 |
| OC[C@@H](Nc1ncnc2oc(-c3ccccc3)c(-c3ccccc3)c12)c1ccccc1 [Compound 31, S-2-(5,6-diphenyl-furo[2,3-d]pyrimidin-4-ylamino)-2-phenyl-ethanol] | – | – | 101 to 900 | 301 to 999 |
| O=C(O)[C@@H](Nc1ncnc2oc(-c3ccccc3)c(Br)c12)c1ccccc1 [Compound 53] | < 59 | – | – | – |
| C[C@@H](Nc1ncnc2sc3c(c12)CCN(C(=O)/C=C/CNN1CCCCC1)C3)c1ccccc1 [Compound 212] | < 59 | – | – | 1 to 99 |
| CC[C@@H](Nc1ncnc2oc(-c3ccccc3)cc12)c1ccccc1 [Compound 56] | – | – | – | 301 to 999 |
| O=C(O)[C@@H](Nc1ncnc2sc3c(c12)CCC3)c1ccccc1 [Compound 20] | – | – | 101 to 900 | – |
| C[C@@H](Nc1ncnc2sc3c(c12)CCN(C(=O)/C=C/CN=[N+]=[N-])C3)c1ccccc1 [Compound 208] | < 59 | – | – | 1 to 99 |
| Cc1sc2ncnc(N[C@H](CO)c3ccccc3)c2c1C [Compound 4, (S)-2-(5,6-dimethylthieno[2,3-d]pyrimidin-4-ylamino)-2-phenylethanol] | – | – | – | 301 to 999 |
| C[C@@H](Nc1ncnc2sc3c(c12)CCN(C(=O)/C=C/CN(C)CCO)C3)c1ccccc1 [Compound 213] | < 59 | – | – | 1 to 99 |
| C=CC(=O)Nc1ccc(-c2c(-c3ccccc3)oc3ncnc(N[C@H](C)c4ccccc4)c23)cc1 [Compound 238] | – | – | 101 to 900 | 1 to 99 |
| OC[C@@H](Nc1ncnc2sc3c(c12)CCCC3)c1ccccc1 [Compound 1, S-2-phenyl-2-(5,6,7,8-tetrahydro-benzo[4,5]thieno[2,3-d]pyrimidin-4-ylamino)-ethanol] | – | – | 101 to 900 | 100 to 300 |
| CCOC(=O)[C@@H](Nc1ncnc2oc(-c3ccccc3)c(-c3ccccc3)c12)c1ccccc1 [Compound 47] | – | – | – | 301 to 999 |
| COC(=O)[C@@H](Nc1ncnc2oc(-c3ccccc3)c(-c3ccccc3)c12)c1ccccc1 [Compound 46] | – | – | – | 301 to 999 |
| C=CC(=O)Nc1cccc(-c2c(-c3ccccc3)oc3ncnc(N[C@H](COC(=O)C=C)c4ccccc4)c23)c1 [Compound 240] | – | 10 to 499 | 101 to 900 | – |
| C[C@@H](Nc1ncnc2sc3c(c12)CCN(C(=O)/C=C/CN(C)C)C3)c1ccc(Br)cc1 [Compound 209] | < 59 | – | – | 1 to 99 |
| CC(=O)OC[C@@H](Nc1ncnc2oc(-c3ccccc3)c(Br)c12)c1ccccc1 [Compound 44] | – | – | – | 301 to 999 |
| CCOC(=O)/C=C/C(=O)N1CCc2c(sc3ncnc(N[C@H](CO)c4ccccc4)c23)C1 [Compound 68] | – | – | – | 1 to 99 |
| C=CC(=O)N1CCc2c(sc3ncnc(N[C@H](CO[Si](C)(C)C(C)(C)C)c4ccccc4)c23)C1 [Compound 15] | – | – | 101 to 900 | 301 to 999 |
| COc1ccc(-c2c(-c3ccccc3)oc3ncnc(N[C@H](CO)c4ccccc4)c23)cc1 [Compound 35] | – | – | 101 to 900 | 100 to 300 |
| CC#CC(=O)Nc1cccc(-c2c(-c3ccccc3)oc3ncnc(N[C@H](COC)c4ccccc4)c23)c1 [Compound 242] | – | – | 101 to 900 | – |

The next lines start with results.

| IC50 (GST-EGFR-KD^WT) [nM] | IC50 (GST-EGFR-KD^L858R/T790M) [nM] | IC50 (GST-EGFR-KD^WT; range given in mixed units) [nM] | Compound | IC50 (HCC827 cells) [nM] |
| --- | --- | --- | --- | --- |
| < 59 | 500 to 2500 | – | C[C@@H](Nc1ncnc2sc3c(c12)CCN(C(=O)/C=C/CN(C)C)C3)c1ccccc1 [Compound 178] | 1 to 99 |
| – | – | 101 to 900 | CC(=O)Nc1cccc(-c2c(-c3ccccc3)oc3ncnc(N[C@H](CO)c4ccccc4)c23)c1 [Compound 38] | 100 to 300 |
| 60 to 100 | – | – | C=CC(=O)Nc1ccc(-c2c(-c3ccccc3)oc3ncnc(N[C@H](CO)c4ccccc4)c23)cc1 [Compound 118, S—N-{4-[4-(2-Hydroxy-1-phenyl-ethylamino)-6-phenyl-furo[2,3-d]pyrimidin-5-yl]-phenyl}-acrylamide] | 301 to 999 |
| 60 to 100 | – | – | CCN(CC)C/C=C/C(=O)N1CCc2c(sc3ncnc(N[C@H](COC)c4ccccc4)c23)C1 [Compound 230] | 1 to 99 |
| < 59 | 500 to 2500 | – | C=CC(=O)N1CCc2c(sc3ncnc(N[C@H](C)c4ccccc4)c23)C1 [Compound 64] | 1 to 99 |
| 60 to 100 | 500 to 2500 | – | C=CS(=O)(=O)N1CCc2c(sc3ncnc(N[C@H](CO)c4ccccc4)c23)C1 [Compound 63] | 100 to 300 |
| – | – | 101 to 900 | C[C@@H](Nc1ncnc2sc3c(c12)CCN(C(=O)/C=C/CNc1ccccc1)C3)c1ccccc1 [Compound 206] | 301 to 999 |
| – | – | 101 to 900 | C=CC(=O)Nc1cccc(-c2c(-c3ccccc3)oc3ncnc(N(C)C(COC)c4ccccc4)c23)c1 (stereo not drawn) [Compound 247] | – |
| < 59 | – | – | C=CC(=O)Nc1cccc(-c2csc3ncnc(N[C@H](CO)c4ccccc4)c23)c1 [Compound 246] | 1 to 99 |
| < 59 | – | – | COC[C@@H](Nc1ncnc2sc3c(c12)CCN(C(=O)/C=C/CN(C)C)C3)c1ccccc1 [Compound 229] | 1 to 99 |
| < 59 | – | – | CN(C)C/C=C/C(=O)N1CCc2c(sc3ncnc(N[C@H](COCc4ccncc4)c4ccccc4)c23)C1 [Compound 224] | 1 to 99 |
| < 59 | – | – | COCCN(C)C/C=C/C(=O)N1CCc2c(sc3ncnc(N[C@H](CO)c4ccccc4)c23)C1 [Compound 327] | – |
| < 59 | – | – | O=C(O)[C@@H](Nc1ncnc2oc(-c3ccccc3)c(-c3ccccc3)c12)c1ccccc1 [Compound 50] | – |
| – | – | 101 to 900 | OC[C@@H](Nc1ncnc2oc(-c3ccccc3)c(-c3ccco3)c12)c1ccccc1 [Compound 40] | 301 to 999 |
| – | – | 101 to 900 | OC[C@@H](Nc1ncnc2sc(-c3ccccc3)c(Cl)c12)c1ccccc1 [Compound 8] | – |
| < 59 | – | – | CN(C)C/C=C/C(=O)N1CCc2c(sc3ncnc(N[C@H](CCOCc4ccccc4F)c4ccccc4)c23)C1 [Compound 218] | 1 to 99 |

| IC50 (GST-EGFR-KD^WT) [nM] | IC50 (GST-EGFR-KD^L858R/T790M) [nM] | IC50 (GST-EGFR-KD^WT; range given in mixed units) [nM] | Compound | IC50 (HCC827 cells) [nM] |
| --- | --- | --- | --- | --- |
| < 59 | – | – | CN(C)C/C=C/C(=O)N1CCc2c(sc3ncnc(N[C@H](COCc4ccc(F)cc4)c4ccccc4)c23)C1 [Compound 219] | 1 to 99 |
| 60 to 100 | – | – | COc1ccc(-c2oc3ncnc(N[C@H](CO)c4ccccc4)c3c2-c2ccc(OC)cc2)cc1 [Compound 36] | – |
| 60 to 100 | – | – | C/C=C/C(=O)N1CCc2c(sc3ncnc(N[C@H](COCc4cccc(F)c4)c4ccccc4)c23)C1 [Compound 220] | – |
| – | – | 101 to 900 | O=C(O)/C=C\C(=O)N1CCc2c(sc3ncnc(N[C@H](CO)c4ccccc4)c23)C1 [Compound 61] | – |
| < 59 | – | – | CN(C)C/C=C/C(=O)N1CCc2c(sc3ncnc(N[C@H](CCO)c4ccccc4)c23)C1 [Compound 194] | 1 to 99 |
| 60 to 100 | – | – | C=CC(=O)Nc1cccc(-c2coc3ncnc(N[C@H](CO)c4ccccc4)c23)c1 [Compound 244] | 301 to 999 |
| < 59 | – | – | CCN(C/C=C/C(=O)N1CCc2c(sc3ncnc(N[C@H](C)c4ccccc4)c23)C1)CCO [Compound 216] | 1 to 99 |
| < 59 | – | – | CCC[C@@H](Nc1ncnc2sc3c(c12)CCN(C(=O)/C=C/CN(C)C)C3)c1ccccc1 [Compound 217] | 1 to 99 |
| < 59 | – | – | C=CC(=O)Nc1cccc(-c2cc3c(N[C@H](CO)c4ccccc4)ncnc3s2)c1 [Compound 245] | 100 to 300 |
| – | – | 101 to 900 | O=C(O)[C@@H](Nc1ncnc2sc(-c3ccccc3)cc12)c1ccccc1 [Compound 22] | – |
| – | – | 101 to 900 | OC[C@@H](Nc1ncnc2oc(-c3ccccc3)c(Cl)c12)c1ccccc1 [Compound 45] | – |
| < 59 | – | – | CN(C)C/C=C/C(=O)N1CCc2c(sc3ncnc(N[C@H](COCc4cccnc4)c4ccccc4)c23)C1 [Compound 231] | 1 to 99 |
| < 59 | – | – | CCN(CC)C/C=C/C(=O)N1CCc2c(sc3ncnc(N[C@H](CCO)c4ccccc4)c23)C1 [Compound 199] | – |
| – | – | 101 to 900 | CC[C@@H](Nc1ncnc2sc3c(c12)CCCC3)c1ccccc1 [Compound 23] | 301 to 999 |
| – | – | 101 to 900 | C=CC(=O)Nc1ccc(-c2nc3c(N[C@H](CO)c4ccccc4)ncnc3o2)cc1 [Compound 154] | – |
